Values after ≈ are worked out from the molar mass of the structure shown. Like-named read-outs stand apart in the source and are kept apart here. Starred links: 1 amine or outer side, 2 acyl side, 3 side chain; linkers in the order of their positions; H or OH if unused. Positions of bridges follow the written chain, without caps; N, C: chain ends. Non-standard residues stand in square brackets, D forms with d. Residues, ends and D or L forms follow the SMILES beside them. ξ: configuration not given here. X4 = CC(C)CCCCCCCCCCC(CC(=O)[*:1])O[*:2]; X2 = CC(C)CCCCCCCCCC(CC(=O)[*:1])O[*:2]; X6 = CC(C)CCCCCCCCC(CC(=O)[*:1])O[*:2]; X5 = CC(C)CCCCCCCC(CC(=O)[*:1])O[*:2]; X3 = CC(C)CCCCCCC(CC(=O)[*:1])O[*:2]; ξAsp(3ξ-OH) = NC(C(=O)O)C(O)C(=O)O; X1 = O=C(C1C(O)CCN1[*:1])[*:2]
How the values were obtained:
[1] = test system: Staphylococcus aureus FDA209P; assay: Minimum growth inhibitory concentration, agar serial dilution; format: cell-based; conditions: Mueller-Hinton agar
[2] = test system: Staphylococcus aureus Smith; assay: as above; format: cell-based; conditions: Mueller-Hinton agar
[3] = test system: Staphylococcus aureus MS9610 (multi-drug-resistant); assay: as above; format: cell-based; conditions: Mueller-Hinton agar
[4] = test system: Staphylococcus aureus MS16460 (methicillin-resistant); assay: as above; format: cell-based; conditions: read-out: Minimum growth inhibitory concentration
[5] = test system: Staphylococcus aureus MS16497 (methicillin-resistant); assay: as above; format: cell-based; conditions: Mueller-Hinton agar
[6] = test system: Staphylococcus aureus MS16526 (methicillin-resistant); assay: as above; format: cell-based; conditions: Mueller-Hinton agar
[7] = test system: Staphylococcus aureus TY-00933 (methicillin-resistant); assay: as above; format: cell-based; conditions: read-out: Minimum growth inhibitory concentration
[8] = test system: Staphylococcus aureus TY-03454 (methicillin-resistant); assay: as above; format: cell-based; conditions: Mueller-Hinton agar
[9] = test system: Staphylococcus aureus TY-03456 (methicillin-resistant); assay: as above; format: cell-based; conditions: read-out: Minimum growth inhibitory concentration
[10] = test system: Staphylococcus aureus TY-04282 (methicillin-resistant); assay: as above; format: cell-based; conditions: Mueller-Hinton agar
Micrococcus luteus FDA16 = assay: as above; format: cell-based; conditions: Mueller-Hinton agar
Bacillus anthracis = assay: microbe, parasite or virus in culture; format: cell-based; conditions: read-out: Minimum growth inhibitory concentration
Bacillus subtilis PCI219 = assay: Minimum growth inhibitory concentration, agar serial dilution; format: cell-based; conditions: Mueller-Hinton agar
[11] = test system: Bacillus cereus ATCC10702; assay: as above; format: cell-based
[12] = test system: Corynebacterium bovis 1810; assay: as above; format: cell-based; conditions: Mueller-Hinton agar
Shigella sonnei JS11746 = assay: as above; format: cell-based; conditions: Mueller-Hinton agar
Protocol: (§1) Minimum growth inhibitory concentrations (μg/ml) of tripropeptin Z against a variety of microorganisms were measured on a Mueller-Hinton agar medium (manufactured by Difco Laboratories) or on a 5% sheep blood-supplemented Mueller-Hinton agar medium (manufactured by Difco Laboratories) for Enterococcus, by a serial dilution method according to the standard method as provided by Japanese Society of Chemotherapy.
as §1, with “A” for “Z”
as §1, with “B” for “Z”
as §1, with “C” for “Z”
as §1, with “D” for “Z”

Salmonella typhi T-63 = assay: as above; format: cell-based; conditions: Salmonella enterica, Mueller-Hinton agar
[13] = test system: Klebsiella pneumoniae PCI602; assay: as above; format: cell-based; conditions: Mueller-Hinton agar
[14] = test system: Enterococcus faecalis JCM5803; assay: as above; format: cell-based; conditions: 5% sheep blood-supplemented Mueller-Hinton agar
[15] = test system: Enterococcus faecium JCM5804; assay: as above; format: cell-based; conditions: 5% sheep blood-supplemented Mueller-Hinton agar
[16] = test system: Enterococcus faecalis NCTC 12201 (vancomycin-resistant); assay: as above; format: cell-based; conditions: NCTC12201, 5% sheep blood-supplemented Mueller-Hinton agar
[17] = test system: Enterococcus faecium NCTC 12202 (vancomycin-resistant); assay: as above; format: cell-based; conditions: NCTC12202, 5% sheep blood-supplemented Mueller-Hinton agar
[18] = test system: Enterococcus faecalis NCTC 12203 (vancomycin-resistant); assay: as above; format: cell-based; conditions: NCTC12203, 5% sheep blood-supplemented Mueller-Hinton agar
[19] = test system: Enterococcus faecium NCTC 12204 (vancomycin-resistant); assay: as above; format: cell-based; conditions: NCTC12204, 5% sheep blood-supplemented Mueller-Hinton agar
[20] = test system: mice (ICR type, 4 weeks-aged, male); conditions: mouse, in vivo, iv, 300 mg/kg
Text: However, an optimal dose of a tripropeptin can be decided by experts through suitable preliminary tests.

[21] = Staphylococcus aureus MS16460 (methicillin-resistant), Mueller-Hinton agar
[22] = Staphylococcus aureus TY-00933 (methicillin-resistant), Mueller-Hinton agar
[23] = Staphylococcus aureus TY-03456 (methicillin-resistant), Mueller-Hinton agar
[24] = Bacillus cereus ATCC10702, Mueller-Hinton agar, read-out: Minimum growth inhibitory concentration
[25] = Bacillus cereus, ATCC10702, read-out: Minimum growth inhibitory concentration

| SMILES | MIC [1] [µg/mL] | MIC [2] [µg/mL] | MIC [3] [µg/mL] | MIC [5] [µg/mL] | MIC [6] [µg/mL] | MIC [8] [µg/mL] | MIC [10] [µg/mL] | MIC (Micrococcus luteus FDA16) [µg/mL] | MIC (Bacillus anthracis) [µg/mL] | MIC (Bacillus subtilis PCI219) [µg/mL] | MIC [12] [µg/mL] | MIC (Shigella sonnei JS11746) [µg/mL] | MIC (Salmonella typhi T-63) [µg/mL] | MIC [13] [µg/mL] | MIC [14] [µg/mL] | MIC [15] [µg/mL] | MIC [16] [µg/mL] | MIC [17] [µg/mL] | MIC [18] [µg/mL] | MIC [19] [µg/mL] | other results |
| --- | --- | --- | --- | --- | --- | --- | --- | --- | --- | --- | --- | --- | --- | --- | --- | --- | --- | --- | --- | --- | --- |
| CC(C)CCCCCCCC1CC(=O)NC(C(C)O)C(=O)N2CCCC2C(=O)N2CCCC2C(=O)NC(CCCNC(=N)N)C(=O)NC(C(O)C(=O)O)C(=O)NC(CO)C(=O)N2CCC(O)C2C(=O)NC(C(O)C(=O)O)C(=O)O1 (stereo not shown) [Tripropeptin A] (TPPR[ξAsp(3ξ-OH)]S[X1][ξAsp(3ξ-OH)]; linker N-C via X5; configuration not given here) | 1.56 (≈ 1.39 µM) | 0.78 (≈ 0.693 µM) | 6.25 (≈ 5.55 µM) | 6.25 (≈ 5.55 µM) | 3.13 (≈ 2.78 µM) | 6.25 (≈ 5.55 µM) | 6.25 (≈ 5.55 µM) | < 0.39 | 25 (≈ 22.2 µM) | 3.13 (≈ 2.78 µM) | 1.56 (≈ 1.39 µM) | > 100 | > 50 | > 50 | 50 (≈ 44.4 µM) | 50 (≈ 44.4 µM) | 50 (≈ 44.4 µM) | 50 (≈ 44.4 µM) | 50 (≈ 44.4 µM) | 50 (≈ 44.4 µM) | MIC [4, 21]: 6.25 µg/mL (≈ 5.55 µM); MIC [7, 22]: 6.25 µg/mL (≈ 5.55 µM); MIC [9, 23]: 6.25 µg/mL (≈ 5.55 µM); MIC [11, 24]: 12.3 µg/mL (≈ 10.9 µM) |
| CC(C)CCCCCCCCCC1CC(=O)NC(C(C)O)C(=O)N2CCCC2C(=O)N2CCCC2C(=O)NC(CCCNC(=N)N)C(=O)NC(C(O)C(=O)O)C(=O)NC(CO)C(=O)N2CCC(O)C2C(=O)NC(C(O)C(=O)O)C(=O)O1 (stereo not shown) [Tripropeptin C] (TPPR[ξAsp(3ξ-OH)]S[X1][ξAsp(3ξ-OH)]; linker N-C via X2; configuration not given here) | 1.56 (≈ 1.35 µM) | 1.56 (≈ 1.35 µM) | 1.56 (≈ 1.35 µM) | 1.56 (≈ 1.35 µM) | 1.56 (≈ 1.35 µM) | 1.56 (≈ 1.35 µM) | 1.56 (≈ 1.35 µM) | 0.2 (≈ 0.173 µM) | 3.13 (≈ 2.71 µM) | 1.56 (≈ 1.35 µM) | 0.39 (≈ 0.338 µM) | > 100 | > 100 | > 100 | 12.5 (≈ 10.8 µM) | 12.5 (≈ 10.8 µM) | 6.25 (≈ 5.41 µM) | 12.5 (≈ 10.8 µM) | 25 (≈ 21.7 µM) | 12.5 (≈ 10.8 µM) | MIC ([4]; Staphylococcus aureus): 3.13 µg/mL (≈ 2.71 µM); MIC ([7]; Staphylococcus aureus): 3.13 µg/mL (≈ 2.71 µM); MIC ([9]; Staphylococcus aureus): 3.13 µg/mL (≈ 2.71 µM); MIC [11, 25]: 3.13 µg/mL (≈ 2.71 µM); Toxicity [20]: did not exhibit any toxicity |
| CC(C)CCCCCCCCCCC1CC(=O)NC(C(C)O)C(=O)N2CCCC2C(=O)N2CCCC2C(=O)NC(CCCNC(=N)N)C(=O)NC(C(O)C(=O)O)C(=O)NC(CO)C(=O)N2CCC(O)C2C(=O)NC(C(O)C(=O)O)C(=O)O1 (stereo not shown) [Tripropeptin D] (TPPR[ξAsp(3ξ-OH)]S[X1][ξAsp(3ξ-OH)]; linker N-C via X4; configuration not given here) | 0.39 (≈ 0.334 µM) | 0.39 (≈ 0.334 µM) | 0.78 (≈ 0.668 µM) | 0.78 (≈ 0.668 µM) | 0.78 (≈ 0.668 µM) | 0.78 (≈ 0.668 µM) | 0.78 (≈ 0.668 µM) | 0.2 (≈ 0.171 µM) | 1.56 (≈ 1.34 µM) | 0.78 (≈ 0.668 µM) | 0.2 (≈ 0.171 µM) | > 100 | > 100 | > 100 | 3.13 (≈ 2.68 µM) | 6.25 (≈ 5.35 µM) | 3.13 (≈ 2.68 µM) | 6.25 (≈ 5.35 µM) | 6.25 (≈ 5.35 µM) | 6.25 (≈ 5.35 µM) | MIC ([4]; Staphylococcus aureus): 1.56 µg/mL (≈ 1.34 µM); MIC [7, 22]: 0.78 µg/mL (≈ 0.668 µM); MIC [9, 23]: 0.78 µg/mL (≈ 0.668 µM); MIC [11, 25]: 1.56 µg/mL (≈ 1.34 µM) |
| CC(C)CCCCCCCCC1CC(=O)NC(C(C)O)C(=O)N2CCCC2C(=O)N2CCCC2C(=O)NC(CCCNC(=N)N)C(=O)NC(C(O)C(=O)O)C(=O)NC(CO)C(=O)N2CCC(O)C2C(=O)NC(C(O)C(=O)O)C(=O)O1 (stereo not shown) [Tripropeptin B] (TPPR[ξAsp(3ξ-OH)]S[X1][ξAsp(3ξ-OH)]; linker N-C via X6; configuration not given here) | 1.56 (≈ 1.37 µM) | 1.56 (≈ 1.37 µM) | 3.13 (≈ 2.74 µM) | 3.13 (≈ 2.74 µM) | 3.13 (≈ 2.74 µM) | 3.13 (≈ 2.74 µM) | 3.13 (≈ 2.74 µM) | 0.2 (≈ 0.175 µM) | 6.25 (≈ 5.48 µM) | 1.56 (≈ 1.37 µM) | 0.78 (≈ 0.684 µM) | > 100 | > 100 | > 100 | 25 (≈ 21.9 µM) | 25 (≈ 21.9 µM) | 12.5 (≈ 11 µM) | 25 (≈ 21.9 µM) | 50 (≈ 43.8 µM) | 25 (≈ 21.9 µM) | MIC ([4]; Staphylococcus aureus): 6.25 µg/mL (≈ 5.48 µM); MIC [7, 22]: 3.13 µg/mL (≈ 2.74 µM); MIC [9, 23]: 3.13 µg/mL (≈ 2.74 µM); MIC [11, 24]: > 100 µg/mL |
| CC(C)CCCCCCC1CC(=O)NC(C(C)O)C(=O)N2CCCC2C(=O)N2CCCC2C(=O)NC(CCCNC(=N)N)C(=O)NC(C(O)C(=O)O)C(=O)NC(CO)C(=O)N2CCC(O)C2C(=O)NC(C(O)C(=O)O)C(=O)O1 (stereo not shown) [Tripropeptin Z] (TPPR[ξAsp(3ξ-OH)]S[X1][ξAsp(3ξ-OH)]; linker N-C via X3; configuration not given here) | 12.5 (≈ 11.2 µM) | 6.25 (≈ 5.62 µM) | 25 (≈ 22.5 µM) | 25 (≈ 22.5 µM) | 25 (≈ 22.5 µM) | 25 (≈ 22.5 µM) | 25 (≈ 22.5 µM) | < 0.39 | 100 (≈ 89.9 µM) | 25 (≈ 22.5 µM) | 6.25 (≈ 5.62 µM) | > 100 | > 50 | > 50 | 100 (≈ 89.9 µM) | > 100 | 100 (≈ 89.9 µM) | > 100 | > 100 | > 100 | MIC [4, 21]: 50 µg/mL (≈ 45 µM); MIC [7, 22]: 25 µg/mL (≈ 22.5 µM); MIC [9, 23]: 25 µg/mL (≈ 22.5 µM); MIC [11, 24]: > 50 µg/mL |

Source: US7271147B2, “Antibiotics, tripropeptins and process for producing the same” (Zaidan Hojin Biseibutsu Kagaku Kenkyu Kai, priority 2000, dated 2007)
